Experimental data reported in patent US11986482B2, “Method of promoting antitumor or anti-cancer immunity” (City University of Hong Kong, priority 2021, dated 2024).

Key:
PD-L1-knockout 4T1 cells = test: PD-L1-knockout 4T1 tumors in Balb/c mice; type: in vivo, mouse; details: 30 mg/kg, daily, oral gavage
Description: (§1) To assess whether the in vivo antitumor growth effect of 6J1 is related to its effect on PD-L1 in 4T1 cells, inventors knock out PD-L1 via CRISPR/Cas9 in 4T1 cells (FIG. 10a). 4T1-NC or 4T1-PD-L1 knockout cells are treated with or without 6J1 (1 μM) for 24 h. The supernatant is collected, and the concentration of extracellular vesicle is determined using a Nanosight nanoparticle analyzer. The exosomes are also collected and subjected to western blot analysis of the EVs marker and PD-L1. […] Inventors then transplant control or PD-L1-knockout 4T1 cells into the fat pad of syngeneic female Balb/c mice. The mice are randomly divided (n=5 per group) and treated with either buffer or 6J1 (30 mg/kg, daily) via oral gavage.

4T1 cells [1] = test: Cell viability of 4T1 cells, MTT assay; type: cell-based; details: ≤1 μM, 24 h or 48 h
Description: The inventors also test the cytotoxicity of 6J1 in several cancer cell lines, HeLa, A549 and MDA-MB-231 cell lines. Cells are grown in 96-well plates in triplicate and treated with or without 6J1 at the concentrations of 0, 0.01, 0.1, 1, 10 and 100 μM indicated for 24 h or 48 h. They are then stained with propidium iodide (PI) or Hochest 33342 to measure the cell death ratio and cell number, respectively. […] Inventors also test the cytotoxicity of 6J1 in 4T1 cells. 4T1 cells are plated in 96-well plates in triplicate and treated with or without 6J1 at the concentrations of 0, 0.01, 0.1, 1, 5, 10, 20, 40, 80 and 100 μM indicated for 24 h or 48 h. The cell viability was then quantified via the MTT assay.

4T1 cells [2] = test: Extracellular vesicle concentration, Nanosight nanoparticle analyzer, 4T1 cells; type: cell-based, mouse; details: 1 μM
Description: (§2) The current PD-L1 and PD1 therapies apply PD-L1 or PD1 monoclonal antibodies to block the PD-L1/PD1 signaling, which results in cytotoxic T cells recognizing and killing the tumor cells. […] First, flow cytometry-based quantification of plasma membrane levels of PD-L1 in 4T1 cells treated with or without 6J1 (1 μM) for 24 h. 4T1 cells are treated with or without 6J1 (1 μM) for 24 h. The supernatant is collected, and the concentration of extracellular vesicle is determined using a Nanosight nanoparticle analyzer in FIG. 8b. The exosomes are also collected and subjected to western blot analysis of the EVs marker and PD-L1 in FIG. 8c.
as §1
Therefore, it is possible that the increased exosomal PD-L1 secretion induced by 6J1 may still suppress the tumor-infiltrating T cell cytotoxicity in vivo, even though 6J1 reduces the cell surface expression level of PD-L1 on the tumor cells. To evaluate the role of exosomal PD-L1 in the tumor microenvironment and tumor progression in mice, inventors knock out Rab27a in 4T1 cells to inhibit the secretion of exosomes. 4T1-shNC or 4T1-shRab27A cells are treated with or without 6J1 (1 μM). The supernatant is collected, and the concentration of extracellular vesicle is determined using a Nanosight nanoparticle analyzer. […] Inventors analyze the plasma membrane levels of PD-L1 in 4T1-shNC or 4T1-shRab27A cells treated with or without 6J1 (1 μM). […]

4T1 cells [3] = test: 4T1-shNC or 4T1-shRab27A tumors in Balb/c nude mice; type: in vivo, mouse; details: 30 mg/kg, daily, oral gavage
Description: Inventors also implant control or Rab27a-knockout 4T1 cells into the fat pads of female Balb/c nude mice. The mice are randomly divided (n=4 per group) and treated with either buffer or 6J1 (30 mg/kg, daily) via oral gavage.

PD-L1 = test: Plasma membrane PD-L1 level in 4T1 cells (flow cytometry); type: cell-based, mouse; details: 1 μM
Description: as §2
Therefore, it is possible that the increased exosomal PD-L1 secretion induced by 6J1 may still suppress the tumor-infiltrating T cell cytotoxicity in vivo, even though 6J1 reduces the cell surface expression level of PD-L1 on the tumor cells. To evaluate the role of exosomal PD-L1 in the tumor microenvironment and tumor progression in mice, inventors knock out Rab27a in 4T1 cells to inhibit the secretion of exosomes. 4T1-shNC or 4T1-shRab27A cells are treated with or without 6J1 (1 μM). The supernatant is collected, and the concentration of extracellular vesicle is determined using a Nanosight nanoparticle analyzer. […] Inventors analyze the plasma membrane levels of PD-L1 in 4T1-shNC or 4T1-shRab27A cells treated with or without 6J1 (1 μM). […] Next, control or Rab27a-knockout 4T1 cells are orthotopically transplanted into syngeneic fat pads of female Balb/c. The mice are randomly divided (n=5 per group) and treated with either buffer or 6J1 (30 mg/kg, daily) via oral gavage. […] Inventors also perform the immunostaining of CD8 and Granzyme B in the tumor sections. […] Since enhanced antitumor immunity leads to increased apoptosis in tumors, inventors assess the levels of cleaved caspase3 (CCA3), one of the markers of apoptosis, in tumor sections as well.
Finally, inventors assess the combinatory effects of 6J1 with GW4869, an exosome secretion inhibitor, in the aforementioned orthotopic mammary carcinoma mouse models. […]

OCCOCCN(c1ccccc1)c1nc(N/N=C/c2cccc(I)c2)nc(N2CCOCC2)n1 [Compound 6J1]
tumor growth in mice implanted with PD-L1-knockout 4T1 cells (PD-L1-knockout 4T1 cells): fails to decrease further tumor growth | proliferation of 4T1 cells (4T1 cells [1]): little effect | 6J1-induced EVs secretion (4T1 cells [2]; 4T1-shRab27A cells): significantly inhibits 6J1-induced EVs secretion | 6J1-induced EVs secretion (4T1 cells [2]; PD-L1-knockout 4T1 cells, 24 h): does not affect 6J1-induced EVs secretion | anti-cancer effect of 6J1 or 6J1 with Rab27a knockout in immunocompromised mice (4T1 cells [3]): dramatically abolished | 6J1-induced decrease of cell surface PD-L1 levels (PD-L1; 4T1-shRab27A cells): does not influence the 6J1-induced decrease of cell surface PD-L1 levels | level of cell surface PD-L1 (PD-L1; 4T1 cells, 24 h): decreases the level of cell surface PD-L1
